Reference: PubChem BioAssay AID248 (DTP/NCI, 2004)
Several values for one entry are separate records, joined by “and”; a condition that tells them apart may be missing. Identical values can stand only once. Toxic doses and inconclusive results are not listed. Cut-off read from the data, not from the text of the source: active = T/C of 150% or more; inactive = T/C below 125%.

System: L1210 leukemia ip in BDF1 mice, survival T/C
Experiment: NCI In Vivo Anticancer Drug Screen. Data for tumor model L1210 Leukemia (intraperitoneal) in B6D2F1 (BDF1) mice
Settings: endpoint: mean survival time, higher = longer survival
Method in brief: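 In this screen, tumor-bearing mice given compound are compared to those given vehicle, and their survival values are reported as a treated-to-control quotient.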

[1] = dose: 100.0 mg/kg/injection, schedule: Q01DX009 (ip), vehicle: Klucel (hydroxypropylcellulose) (HPC)
[2] = dose: 200.0 mg/kg/injection, schedule: Q01DX009 (ip), vehicle: Klucel (hydroxypropylcellulose) (HPC)
[3] = dose: 400.0 mg/kg/injection, schedule: Q01DX009 (ip), vehicle: Klucel (hydroxypropylcellulose) (HPC)
[4] = dose: 100.0 mg/kg/injection, schedule: Q01DX001 (ip), vehicle: saline
[5] = dose: 200.0 mg/kg/injection, schedule: Q01DX001 (ip), vehicle: saline
[6] = dose: 400.0 mg/kg/injection, schedule: Q01DX001 (ip), vehicle: saline
[7] = dose: 100.0 mg/kg/injection, schedule: Q04DX002 (ip), vehicle: saline with Tween-80
[8] = dose: 200.0 mg/kg/injection, schedule: Q04DX002 (ip), vehicle: saline with Tween-80
[9] = dose: 50.0 mg/kg/injection, schedule: Q01DX009 (ip), vehicle: Klucel (hydroxypropylcellulose) (HPC)

Measured: T/C

CC(C)(C)CC(C)(C)c1ccc(O)cc1
inactive: dose: 62.5 mg/kg/injection, schedule: Q01DX Z (ip), vehicle: saline 95 % of control | dose: 100.0 mg/kg/injection, schedule: Q01DX001 (ip), vehicle: carboxymethylcellulose (CMC) 94 % of control | dose: 125.0 mg/kg/injection, schedule: Q01DX Z (ip), vehicle: saline 101 % of control | dose: 200.0 mg/kg/injection, schedule: Q01DX001 (ip), vehicle: carboxymethylcellulose (CMC) 100 % of control | dose: 250.0 mg/kg/injection, schedule: Q01DX Z (ip), vehicle: saline 90 % of control | dose: 400.0 mg/kg/injection, schedule: Q01DX001 (ip), vehicle: carboxymethylcellulose (CMC) 100 % of control | dose: 500.0 mg/kg/injection, schedule: Q01DX Z (ip), vehicle: saline 100 % of control

Nc1nc(N)nc(N)n1
inactive: dose: 50.0 mg/kg/injection, schedule: Q04DX002 (ip), vehicle: Klucel (hydroxypropylcellulose) (HPC) 94 % of control | [1] 92 % of control and 113 % of control | dose: 100.0 mg/kg/injection, schedule: Q04DX002 (ip), vehicle: Klucel (hydroxypropylcellulose) (HPC) 94 % of control | [2] 92 % of control and 99 % of control | dose: 200.0 mg/kg/injection, schedule: Q04DX002 (ip), vehicle: Klucel (hydroxypropylcellulose) (HPC) 94 % of control and 105 % of control | [3] 95 % of control and 99 % of control | dose: 400.0 mg/kg/injection, schedule: Q04DX002 (ip), vehicle: Klucel (hydroxypropylcellulose) (HPC) 102 % of control | dose: 800.0 mg/kg/injection, schedule: Q01DX009 (ip), vehicle: Klucel (hydroxypropylcellulose) (HPC) 96 % of control | dose: 1000.0 mg/kg/injection, schedule: Q01DX009 (ip), vehicle: Klucel (hydroxypropylcellulose) (HPC) 103 % of control

Nc1nc(N)c(N=Nc2ccc(SCC(=O)O)cc2)c(=O)[nH]1
inactive: [4] 93 % of control | [5] 98 % of control | [6] 96 % of control

Cc1ccc(C(=O)c2sc(Nc3cccc(C(F)(F)F)c3)c(C#N)c2N)c(C)c1
inactive: [7] 95 % of control | [8] 87 % of control | dose: 400.0 mg/kg/injection, schedule: Q04DX002 (ip), vehicle: saline with Tween-80 91 % of control

COCN(C(=O)CCl)c1c(C)cccc1C(C)(C)C
inactive: dose: 100.0 mg/kg/injection, schedule: Q01DX009 (ip), vehicle: saline with Tween-80 95 % of control | dose: 200.0 mg/kg/injection, schedule: Q01DX009 (ip), vehicle: saline with Tween-80 97 % of control | dose: 400.0 mg/kg/injection, schedule: Q01DX009 (ip), vehicle: saline with Tween-80 93 % of control

Cc1cc(O)c(C(N)=O)c(=O)[nH]1
inactive: [4] 95 % of control | [5] 98 % of control | [6] 101 % of control

Cc1cc(C)c(NS(=O)(=O)c2ccc(Cl)cc2)cc1C
inactive: [1] 108 % of control | [2] 106 % of control | [3] 100 % of control

N#CC1CCCC1=O (configuration not stated)
inactive: dose: 5.0 mg/kg/injection, schedule: Q01DX009 (ip), vehicle: saline 97 % of control | dose: 10.0 mg/kg/injection, schedule: Q01DX009 (ip), vehicle: saline 101 % of control | dose: 20.0 mg/kg/injection, schedule: Q01DX009 (ip), vehicle: saline 106 % of control

Cc1ccc(Cl)cc1NS(=O)(=O)c1cc(Cl)c(Cl)cc1Cl
inactive: [1] 93 % of control | [2] 89 % of control | [3] 94 % of control

NCC(=O)NC1(C(=O)O)C2CC3CC(C2)CC1C3 (configuration not stated)
inactive: dose: 25.0 mg/kg/injection, schedule: Q01DX009 (ip), vehicle: Klucel (hydroxypropylcellulose) (HPC) 96 % of control | [9] 94 % of control | [1] 94 % of control and 96 % of control | [2] 103 % of control | [3] 103 % of control

Oc1ccccc1COCc1ccccc1O
inactive: dose: 100.0 mg/kg/injection, schedule: Q01DX001 (sc), vehicle: olive oil, sesame oil, peanut oil 104 % of control | dose: 100.0 mg/kg/injection, schedule: Q04DX003 (sc), vehicle: olive oil, sesame oil, peanut oil 102 % of control | dose: 200.0 mg/kg/injection, schedule: Q01DX001 (sc), vehicle: olive oil, sesame oil, peanut oil 98 % of control | dose: 200.0 mg/kg/injection, schedule: Q04DX003 (sc), vehicle: olive oil, sesame oil, peanut oil 108 % of control | dose: 400.0 mg/kg/injection, schedule: Q01DX001 (sc), vehicle: olive oil, sesame oil, peanut oil 100 % of control | dose: 400.0 mg/kg/injection, schedule: Q04DX003 (sc), vehicle: olive oil, sesame oil, peanut oil 108 % of control

COC(=O)c1cc2nccc3c4ccccc4n(c1=O)c23
inactive: dose: 100.0 mg/kg/injection, schedule: Q04DX003 (ip), vehicle: alcohol 103 % of control | dose: 200.0 mg/kg/injection, schedule: Q04DX003 (ip), vehicle: alcohol 97 % of control | dose: 400.0 mg/kg/injection, schedule: Q04DX003 (ip), vehicle: alcohol 98 % of control

O=c1cc(O)nc[nH]1
inactive: dose: 220.0 mg/kg/injection, schedule: Q01DX Z (oral), vehicle: methylcellulose (MC) 105 % of control | dose: 330.0 mg/kg/injection, schedule: Q01DX Z (oral), vehicle: methylcellulose (MC) 100 % of control | dose: 500.0 mg/kg/injection, schedule: Q01DX Z (oral), vehicle: methylcellulose (MC) 95 % of control

Cc1cccc2c(N3CCOCC3)c3c(nc12)CCCCC3
inactive: dose: 100.0 mg/kg/injection, schedule: Q04DX003 (ip), vehicle: saline with Tween-80 96 % of control | dose: 200.0 mg/kg/injection, schedule: Q04DX003 (ip), vehicle: saline with Tween-80 95 % of control | dose: 400.0 mg/kg/injection, schedule: Q04DX003 (ip), vehicle: saline with Tween-80 101 % of control

Nc1ccccc1/C=C/c1ccncc1
inactive: [9] 100 % of control | [1] 92 % of control | [2] 101 % of control | [3] 100 % of control

CC1=Nc2ccccc2/C1=C/c1c(O)[nH]c(=O)[nH]c1=O
inactive: dose: 37.5 mg/kg/injection, schedule: Q01DX Z (ip), vehicle: carboxymethylcellulose (CMC) 103 % of control | dose: 75.0 mg/kg/injection, schedule: Q01DX Z (ip), vehicle: carboxymethylcellulose (CMC) 103 % of control | dose: 150.0 mg/kg/injection, schedule: Q01DX Z (ip), vehicle: carboxymethylcellulose (CMC) 100 % of control | dose: 300.0 mg/kg/injection, schedule: Q01DX Z (ip), vehicle: carboxymethylcellulose (CMC) 103 % of control

O=C(CC(=O)c1ccccc1)c1ccccc1.O=C(CC(=O)c1ccccc1)c1ccccc1.O=C(CC(=O)c1ccccc1)c1ccccc1.[Al]
inactive: dose: 100.0 mg/kg/injection, schedule: Q04DX002 (ip), vehicle: gum acacia 100 % of control | dose: 200.0 mg/kg/injection, schedule: Q04DX002 (ip), vehicle: gum acacia 97 % of control | dose: 400.0 mg/kg/injection, schedule: Q04DX002 (ip), vehicle: gum acacia 90 % of control

O=C1NC(=O)C(c2ccccc2)O1 (configuration not stated)
inactive: dose: 100.0 mg/kg/injection, schedule: Q01DX001 (ip), vehicle: other 92 % of control | dose: 200.0 mg/kg/injection, schedule: Q01DX001 (ip), vehicle: other 103 % of control | dose: 400.0 mg/kg/injection, schedule: Q01DX001 (ip), vehicle: other 97 % of control

Brc1ccccc1Nn1c2ccccc2c2ccccc21
inactive: [1] 103 % of control | [2] 95 % of control | [3] 103 % of control

O=C1OC(C(O)CO)C(O)C1O (configuration not stated)
inactive: dose: 25.0 mg/kg/injection, schedule: Q04DX002 (ip), vehicle: saline with Tween-80 101 % of control | dose: 50.0 mg/kg/injection, schedule: Q01DX001 (ip), vehicle: saline 94 % of control | dose: 50.0 mg/kg/injection, schedule: Q04DX002 (ip), vehicle: saline with Tween-80 101 % of control | [4] 100 % of control | [7] 96 % of control | [5] 100 % of control | [8] 101 % of control | [6] 92 % of control
